Where two headings read alike, the source gives them in different places.
How the values were obtained:
[1] = tested on: T lymphocytes (normal mouse spleen cells) stimulated with ConA; test: Mouse Spleen Cell ConA Blastogenesis Assay; type: cell-based, mouse (C57Bl/6)
[2] = tested on: BUD-8 human skin fibroblasts; test: Fibroblast assay: proliferation of BUD-8 skin cell fibroblasts; type: cell-based
Experimental: The human skin cell fibroblast line, BUD-8 was obtained prior to each assay from the American Type Culture Collection. This is a fibroblast-like cell line which was originally derived from the normal skin of a person.
BUD-8 cell cultures were expanded for use in 25 cm^2 flasks at 37° C. in an atmosphere of 5% CO2 in air. At approximately 4-5 five day intervals, or when confluence was reached, the cells were passaged. This was accomplished by detaching the cells with a Teflon scraper, washing and reseeding the cells at a lower density into fresh tissue culture flasks.
(§1) The effect of the compound of the present invention on the proliferative capacity of human BUD-8 skin fibroblasts was measured with the use of a ^3 H-thymidine incorporation assay using culture conditions which were similar to those used for a Con-A blastogenesis assay, described previously. Cultured skin cells were detached from the surface of tissue culture flasks mechanically with a Teflon scraper. The cells were washed, resuspended in incubation medium and the viabilities were determined. These cells were then plated in triplicate at a density of 2×10^3 cells/0.1 ml/microtiter well for the proliferation assay and a density of 1×10^4 cells/0.1 ml/microtiter well for the assays to quantitate PGE2 and LTB4. To these cells was added incubation medium containing indomethacin to inhibit prostaglandin production, or nordihydroguaiaretic acid (NDGA) to inhibit leukotriene production (positive controls).
After 3 days of culture, 1 uCi ^3 H-thymidine was added in a 50 ul volume to each culture well of the microtiter plates. Eighteen hours later, each of the BUD-8 cultures was examined morphologically for evidence of compound-induced toxicity such as cell rounding or granularity. The thymidine-pulsed cells were then precipitated and the amount of ^3 H-thymidine incorporated was counted in a liquid scintillation counter.
The concentrations of the compounds of the invention which were used in these assays were:
The incubation medium used for culturing the BUD-8 cells was RPMI-1640 medium containing 10% fetal bovine serum, 100 ug/ml streptomycin, 100 U/ml penicillin, 0.2M Hepes buffer solution, 5×10^-5 M 2-mercaptoethanol and 2 mM glutamine.

[3] = tested on: PGE2 production by BUD-8 skin cell fibroblasts; test: PGE2 production by BUD-8 skin cell fibroblasts (radioimmunoassay); type: cell-based, human
Experimental: as §1
After 18 hours of culture, samples of the BUD-8 skin cell supernatants were collected from one set of microtiter plates and frozen until assayed for PGE2 or for LTB4 content using the radioimmunoassays described below.
A radioinmunoassay (New England Nuclear) was used to quantitate PGE2 levels in BUD-8 skin cell culture supernatants. Briefly, into each polypropylene tube were mixed 0.1 ml anti-PGE2, 0.1 ml ^125 1-PGE2 and 0.1 ml PGE2 standard or PGE2 containing sample. The BUD-8 skin culture supernatants were diluted 1:2 prior to addition to the radioimmunoassay. Tubes were refrigerated overnight. A polyethylene glycol solution (16%, 6,000 m.w.) was then added to precipitate immune complexes and the radioactivity in the precipitate was counted in a gamma counter.

[4] = ConA 1 ug/ml, compound 100 ug/ml
[5] = ConA 1 ug/ml, compound 300 ug/ml
[6] = ConA 1 ug/ml, compound 750 ug/ml
[7] = ConA 4 ug/ml, compound 300 ug/ml
[8] = ConA 4 ug/ml, compound 750 ug/ml

In the case of `CCCCCCCOCCCO[C@@H]1[C@H]2OC(C)(C)O[C@H]2O[C@@H]1[C@H](O)CO` [IIg], the “Blastogenic response of normal spleen cells to Con-A” value (from here on “Blastogenic response … to Con-A”) ([1]; ConA 1 ug/ml, compound 1 ug/ml) is reported as 91,958 ± 15,723 cpm, the “Blastogenic response … to Con-A” value ([1]; ConA 1 ug/ml, compound 10 ug/ml) is reported as 100,734 ± 25,985 cpm and the “Blastogenic response … to Con-A” value ([1]; ConA 1 ug/ml, compound 25 ug/ml) is reported as 108,874 ± 15,534 cpm. The “% change from control, ConA blastogenic response” value (“% change from control” below) [1, 4] was -67%, the “Blastogenic response … to Con-A” value [1, 4] was 23,806 ± 1,727 cpm and the “% change from control” value [1, 5] was -84%. The “Blastogenic response … to Con-A” value [1, 5] was 11,212 ± 15,288 cpm, the “% change from control” value [1, 6] was -82% and the “Blastogenic response … to Con-A” value [1, 6] was 12,807 ± 9,049 cpm. The “Blastogenic response … to Con-A” value ([1]; ConA 4 ug/ml, compound 1 ug/ml) was 174,764 × 10^3 cpm, the “Blastogenic response … to Con-A” value ([1]; ConA 4 ug/ml, compound 10 ug/ml) was 168,131 ± 14,911 cpm and the “Blastogenic response … to Con-A” value ([1]; ConA 4 ug/ml, compound 25 ug/ml) was 216,784 ± 27,862 cpm. For the same compound, the “Blastogenic response … to Con-A” value ([1]; ConA 4 ug/ml, compound 100 ug/ml) was 31,073 ± 10,784 cpm, the “% change from control” value [1, 7] was -91% and the “Blastogenic response … to Con-A” value [1, 7] was 8,268 ± 322 × 10^3 cpm. The “% change from control” value [1, 8] was -79%, the “Blastogenic response … to Con-A” value [1, 8] was 20,265 ± 12,455 cpm and the inhibition at 1 µg/mL ([1]; Mus musculus, T-lymphocyte, ConA 1 ug/ml, compound 1 ug/ml, read-out: % change from control, ConA blastogenic response) was -27%. The inhibition at 10 µg/mL ([1]; Mus musculus, T-lymphocyte, ConA 1 ug/ml, compound 10 ug/ml, read-out: % change from control, ConA blastogenic response) was -39%, the inhibition at 25 µg/mL ([1]; Mus musculus, T-lymphocyte, ConA 1 ug/ml, compound 25 ug/ml, read-out: % change from control, ConA blastogenic response) was -51% and the inhibition at 100 µg/mL ([1]; Mus musculus, T-lymphocyte, ConA 1 ug/ml, compound 100 ug/ml, read-out: % change from control, ConA blastogenic response) was 67%. It also gave an inhibition at 300 µg/mL ([1]; Mus musculus, T-lymphocyte, ConA 1 ug/ml, compound 300 ug/ml, read-out: % change from control, ConA blastogenic response) of 84%, an inhibition at 750 µg/mL ([1]; Mus musculus, T-lymphocyte, ConA 1 ug/ml, compound 750 ug/ml, read-out: % change from control, ConA blastogenic response) of 82% and an inhibition at 1 µg/mL ([1]; Mus musculus, T-lymphocyte, ConA 4 ug/ml, compound 1 ug/ml, read-out: % change from control, ConA blastogenic response) of -80%. For the same compound, the inhibition at 10 µg/mL ([1]; Mus musculus, T-lymphocyte, ConA 4 ug/ml, compound 10 ug/ml, read-out: % change from control, ConA blastogenic response) was -73%, the inhibition at 25 µg/mL ([1]; Mus musculus, T-lymphocyte, ConA 4 ug/ml, compound 25 ug/ml, read-out: % change from control, ConA blastogenic response) was -123% and the inhibition at 300 µg/mL ([1]; Mus musculus, T-lymphocyte, ConA 4 ug/ml, compound 300 ug/ml, read-out: % change from control, ConA blastogenic response) was 91%. The inhibition at 750 µg/mL ([1]; Mus musculus, T-lymphocyte, ConA 4 ug/ml, compound 750 ug/ml, read-out: % change from control, ConA blastogenic response) was 79%, the “^3 H-Thymidine uptake by BUD-8 skin cells” value (shortened to “^3 H-Thymidine uptake”) ([2]; 1 ug/ml) was 6,096 ± 1,352 cpm and the “^3 H-Thymidine uptake” value ([2]; 10 ug/ml) was 3,552 ± 994 cpm. For the same compound, the “^3 H-Thymidine uptake” value ([2]; 25 ug/ml) was 4,207 ± 450 cpm, the “^3 H-Thymidine uptake” value ([2]; 100 ug/ml) was 4,117 ± 481 cpm and the “^3 H-Thymidine uptake” value ([2]; 300 ug/ml) was 2,233 ± 244 cpm. The “^3 H-Thymidine uptake” value ([2]; 750 ug/ml) was 3,898 ± 1,692 cpm, the inhibition at 1 µg/mL ([2]; Homo sapiens, Skin fibroblast, 1 ug/ml, read-out: % Effect on BUD-8 proliferation) was 1% and the inhibition at 10 µg/mL ([2]; Homo sapiens, Skin fibroblast, 10 ug/ml, read-out: % Effect on BUD-8 proliferation) was 42%. It also gave an inhibition at 25 µg/mL ([2]; Homo sapiens, Skin fibroblast, 25 ug/ml, read-out: % Effect on BUD-8 proliferation) of 32%, an inhibition at 100 µg/mL ([2]; Homo sapiens, Skin fibroblast, 100 ug/ml, read-out: % Effect on BUD-8 proliferation) of 33% and an inhibition at 300 µg/mL ([2]; Homo sapiens, Skin fibroblast, 300 ug/ml, read-out: % Effect on BUD-8 proliferation) of 64%. The inhibition at 750 µg/mL ([2]; Homo sapiens, Skin fibroblast, 750 ug/ml, read-out: % Effect on BUD-8 proliferation) was 37%, the PGE2 in supernatant ([3]; 1 ug/ml) was 5.2 ± 0.9 pg PGE2 /50 ul supernatant and the “calculated PGE2 produced/10^5 BUD-8 cells” value ([3]; 1 ug/ml) was 157 pg per 10^5 cells. The PGE2 in supernatant ([3]; 10 ug/ml) was 5.6 ± 0.4 pg PGE2 /50 ul supernatant, the “calculated PGE2 produced/10^5 BUD-8 cells” value ([3]; 10 ug/ml) was 173 pg per 10^5 cells and the PGE2 in supernatant ([3]; 25 ug/ml) was 4.1 ± 0.3 pg PGE2 /50 ul supernatant. The “calculated PGE2 produced/10^5 BUD-8 cells” value ([3]; 25 ug/ml) was 111 pg per 10^5 cells, the PGE2 in supernatant ([3]; 100 ug/ml) was 11.0 ± 1.4 pg PGE2 /50 ul supernatant and the “calculated PGE2 produced/10^5 BUD-8 cells” value ([3]; 100 ug/ml) was 388 pg per 10^5 cells. The PGE2 in supernatant ([3]; 300 ug/ml) was 19.6 ± 1.6 pg PGE2 /50 ul supernatant, the “calculated PGE2 produced/10^5 BUD-8 cells” value ([3]; 300 ug/ml) was 731 pg per 10^5 cells and the PGE2 in supernatant ([3]; 750 ug/ml) was 7.3 ± 0.2 pg PGE2 /50 ul supernatant. The “calculated PGE2 produced/10^5 BUD-8 cells” value ([3]; 750 ug/ml) was 241 pg per 10^5 cells, the inhibition at 1 µg/mL ([3]; Homo sapiens, Fibroblast, 18 h, 1 ug/ml, read-out: % Effect on PGE2 production) was 45% and the inhibition at 10 µg/mL ([3]; Homo sapiens, Fibroblast, 18 h, 10 ug/ml, read-out: % Effect on PGE2 production) was 40%. For the same compound, the inhibition at 25 µg/mL ([3]; Homo sapiens, Fibroblast, 18 h, 25 ug/ml, read-out: % Effect on PGE2 production) was 57%, the inhibition at 100 µg/mL ([3]; Homo sapiens, Fibroblast, 18 h, 100 ug/ml, read-out: % Effect on PGE2 production) was -17% and the inhibition at 300 µg/mL ([3]; Homo sapiens, Fibroblast, 18 h, 300 ug/ml, read-out: % Effect on PGE2 production) was -108%. For the same compound, the inhibition at 750 µg/mL ([3]; Homo sapiens, Fibroblast, 18 h, 750 ug/ml, read-out: % Effect on PGE2 production) was 22%.

Source: patent US5298494A, “Monosaccharides having anti-proliferation and anti-inflammatory activity, compositions and uses thereof” (Greenwich Pharmaceuticals Incorporated, priority 1993, dated 1994)
